Experimental data from US20210228549A1 (Biohaven Therapeutics Ltd., priority 2015, published 2021).
Where two headings read alike, the source gives them in different places.

Assays:
[1] = PK in fasted male Sprague Dawley rats, PO administration of prodrug; type: in vivo; details: for Prodrug AUGlast, Mean: PO 5 mg/kg
Procedure: (§1) Blood samples were collected at pre-determined time points including a 0 h time point and usually between 7 and 8 additional time points not exceeding a 24 h period.
(§2) Plasma samples were extracted and analyzed using the methods described in Plasma Sample Extraction and Analysis. All data are expressed as ng/mL of the free base. Samples that were below the limit of quantification (0.5 ng/mL) were not used in the calculation of averages.
(§3) Pharmacokinetic parameters were calculated from the time course of the plasma concentrations. Pharmacokinetic parameters were determined with Phoenix Winnonlin (v6.3) software using a non-compartmental model. The maximum plasma concentration (Cmax) and time to the maximum plasma concentration (Tmax) of the compound of the disclosure were observed from the data. The area under the concentration-time curve (AUC) of the compound of the disclosure was calculated using the trapezoidal formula with calculation to the last quantifiable data point, and to infinity if applicable. Plasma half-life (t1/2) was calculated from 0.693/slope of the terminal elimination phase. Mean residence time, MRT, was calculated by dividing the area under the moment curve (AUMC) by the AUC. Any samples below the limit of quantitation (0.5 ng/mL) were treated as zero for pharmacokinetic data analysis.
Plasma Sample Extraction and Analysis: Analytical stock solutions (1.00 mg/mL of the free compound of the disclosure) were prepared in DMSO. Standards were prepared in diluted matrix containing 1 part 10% formic acid and 9 parts Sprague-Dawley rat plasma containing sodium heparin as the anticoagulant (pre-diluted with 1 part of 0.5M citric acid and 9 parts whole blood). Working solutions were prepared in 50:50 acetonitrile:water. Working solutions were then added to plasma to make calibration standards to final concentrations of 1000, 500, 100, 50, 10, 5, 1, and 0.5 ng/mL. Standards contained both the test article and riluzole. Standards were treated identically to the study samples.
Sample Extraction: Plasma samples were extracted via acetonitrile precipitation on a Tomtec Quadra 96-Model 320 liquid handling system in a 96-well plate format.

[2] = PK in fasted male Sprague Dawley rats, IV administration of prodrug; type: in vivo
Procedure: as §1, §2
as §3, with “analysis. […]” for “analysis.”

Melanoma C8161 cells = test: Inhibition of human melanoma cell xenograft growth; type: in vivo; details: C8161 xenograft in nude mice, P<0.01
Procedure: Mice were treated every day for 21 days, and tumor sizes were measured twice weekly with a Vernier caliper.

[3] = test system: patients with Stage III and IV melanoma; details: after only 14 days of treatment, cited from earlier work
[4] = test system: patients diagnosed with Alzheimer's disease of mild-to-moderate severity; details: for CDR01-Sum of Boxes, Model Estimates, Difference LSMean (SE) / ADAS-Cog Total Score, Model Estimates, Difference LSMean (SE) / Hippocampal Volume Change, Model Estimates, Difference LSMean (SE): placebo vs troriluzole; for Hippocampal Volume Change, Model Estimates, LSMean (SE) / Hippocampal Volume Change, Model Estimates, Difference LSMean (SE) / Hippocampal Volume Change, Analysis Value, Mean (SD) / Hippocampal Volume Change, Analysis Value, Median: volumetric MRI;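 for all read-outs here: multicenter parallel-group study, AD severity graded by Mini-Mental State Examination score (mild 20–24, moderate 14–19)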
Procedure: This is a phase 2 multi-center, randomized, double blind, placebo-controlled, parallel group study in patients with mild to moderate Alzheimer's disease.
Participants will be randomized to one of two groups: 280 mg of BHV-4157 or placebo. […] Treatment duration is 48 weeks (12 months). There is a screening period of up to 42 days and a 4-week post-treatment observation period.
The CDR-SOB (Hughes, Berg, Danziger, Coben, & Martin, 1982) is a validated composite rating of cognition and everyday functioning used in longitudinal AD research which incorporates both informant input and direct assessment of performance. It assesses through semi structured interview 3 cognitive domains including memory, orientation, and judgement/problem solving and 3 everyday functional domains including community affairs, home and hobbies and personal care. There are 5 levels of impairment from none CDR=0 to severe CDR=3. The individual domain scores are added to create a sum of the box scores.

[5] = fasted male Sprague Dawley rats, prodrug in plasma
[6] = Mild AD Patients Only, Week 48, troriluzole 280 mg once daily, N 62
[7] = Mild AD Patients Only, Week 48, troriluzole 280 mg once daily, N 65
[8] = mild-to-moderate AD, Week 48, troriluzole 280 mg once daily, N 118
[9] = mild-to-moderate AD, Week 48, troriluzole 280 mg once daily, N 119
[10] = Mild AD Patients Only, Week 48, troriluzole 280 mg once daily, N 48
[11] = mild-to-moderate AD, Week 48, troriluzole 280 mg once daily, N 87

## CN(CC(=O)Nc1nc2ccc(OC(F)(F)F)cc2s1)C(=O)CNC1CCNCC1 [Example 216, N-methyl-2-[(piperidin-4-yl)amino]-N-({[6-(trifluoromethoxy)-1,3-benzothiazol-2-yl]carbamoyl}methyl)acetamide]
[1]; [5]
  Prodrug AUGlast, Mean: 16.6 ng·h/mL

## CN(CC(=O)Nc1nc2ccc(OC(F)(F)F)cc2s1)C(=O)CNC(C)(C)C [Example 125, 2-(tert-butylamino)-N-methyl-N-(2-oxo-2-((6-(trifluoromethoxy)benzo[d]thiazol-2-yl)amino)ethyl)acetamide]
[2]
  Half life on conversion to Riluzole: moderate to long half life
[1]; rat, plasma, fasted male Sprague Dawley rats, PO 14 mg/kg, prodrug, read-out: Example 125 % F (bioavailability)
  bioavailability: 26%
[1]; rat, fasted male Sprague Dawley rats, PO 14 mg/kg, prodrug in plasma, read-out: Example 125 AUCinf, Mean
  AUC(0-inf): 2290 ng·h/mL
[1]; rat, fasted male Sprague Dawley rats, PO 14 mg/kg, prodrug in plasma, read-out: Example 125 AUClast, Mean
  AUC(0-t): 2260 ng·h/mL
[1]; rat, fasted male Sprague Dawley rats, PO 14 mg/kg, prodrug in plasma, read-out: Example 125 Cmax, Mean
  Cmax: 213 ng/mL
[1]; rat, fasted male Sprague Dawley rats, PO 14 mg/kg, prodrug in plasma, read-out: Example 125 t1/2, Mean (converted)
  half-life: 3.8 h
[1]; rat, fasted male Sprague Dawley rats, PO 14 mg/kg, prodrug in plasma, read-out: Example 125 tmax, Mean
  Tmax: 1.8 h
[1]; rats, oral administration
  Half life on conversion to Riluzole: long half life
  Oral bioavailability on conversion to Riluzole: high oral bioavailability
Melanoma C8161 cells; 4.9 mg/kg (threefold lower in molar terms) p.o. gavage every day for 21 days
  Tumor volume vs untreated or vehicle-treated controls: significant reduction in tumor volume
Melanoma C8161 cells; 14.6 mg/kg (equimolar to riluzole) p.o. gavage every day for 21 days
  Tumor volume vs untreated or vehicle-treated controls: significant reduction in tumor volume

## Nc1nc2ccc(OC(F)(F)F)cc2s1 [riluzole]
[3]; listed as Riluzole
  Patients with clinical or radiologic evidence of tumor response: four of 12
[3]
  Patients with clinical or radiologic evidence of tumor response: four of twelve

## CN(CC(=O)Nc1nc2ccc(OC(F)(F)F)cc2s1)C(=O)CNC(=O)CN [Example 204, 2-Amino-N-{[methyl({[6-(trifluoromethoxy)-1,3-benzothiazol-2-yl]carbamoyl}methyl)carbamoyl]methyl}acetamide]
[1]; [5]
  Prodrug AUGlast, Mean: 0.90 ng·h/mL
[4]; 280 mg once daily, safety profile consistent with previous studies
  Safety and tolerability: relatively well tolerated
[4]; Mild AD Patients Only, Week 48, change from baseline, 95% CI (1.1, 2.2)
  CDR01-Sum of Boxes, Model Estimates, LSMean (SE): 1.7 (0.29)
[4]; Mild AD Patients Only, Week 48, change from baseline, 95% CI (2.7, 5.7)
  ADAS-Cog Total Score, Model Estimates, LSMean (SE): 4.2 (0.76)
[4]; Mild AD Patients Only, Week 48, 95% CI (−1.1, 0.5), P-Value 0.4347
  CDR01-Sum of Boxes, Model Estimates, Difference LSMean (SE): −0.3 (0.40)
[4]; Mild AD Patients Only, Week 48, 95% CI (−1.4, 2.7)
  ADAS-Cog Total Score, Model Estimates, Difference LSMean (SE): 0.7 (1.02)
[4]; [6]
  CDR01-Sum of Boxes, Analysis Value, Mean (SD): 7.1 (2.79)
  CDR01-Sum of Boxes, Analysis Value, Median: 6.5
  CDR01-Sum of Boxes, Change from Baseline, Mean (SD): 1.4 (2.06)
  CDR01-Sum of Boxes, Change from Baseline, Median: 1.0
[4]; [7]
  ADAS-Cog Total Score, Analysis Value, Mean (SD): 26.2 (8.22)
  ADAS-Cog Total Score, Analysis Value, Median: 26.0
  ADAS-Cog Total Score, Change from Baseline, Mean (SD): 3.9 (5.90)
  ADAS-Cog Total Score, Change from Baseline, Median: 4.0
[4]; Week 48, only mild AD, only moderate AD, only ApoE4 positive, only ApoE4 negative patients
  NPI across subgroups: numerical differences of a potential benefit
[4]; mild AD, after 48 weeks, 95% CI −1.4, 2.7, p-value=0.5233
  ADAS-Cog11 score, difference placebo vs troriluzole: 0.7
[4]; mild AD, after 48 weeks, n=48, 95% CI −1.6, −0.6, placebo −1.6%
  LS mean percent deformation change from baseline hippocampal volume: −1.1%
[4]; mild AD, after 48 weeks, n=62, placebo 4.2 points
  LS mean change from baseline on the NPI score: 2.1 points
[4]; mild AD, after 48 weeks, n=65, 95% CI 2.7, 5.7, placebo 4.9 points
  LS mean change from baseline on the ADAS-Cog11 score: 4.2 points
[4]; mild-to-moderate AD, Week 48, change from baseline, 95% CI (1.7, 2.5)
  CDR01-Sum of Boxes, Model Estimates, LSMean (SE): 2.1 (0.21)
[4]; mild-to-moderate AD, Week 48, 95% CI (−0.8, 0.3), P-Value 0.4474
  CDR01-Sum of Boxes, Model Estimates, Difference LSMean (SE): −0.2 (0.28)
[4]; mild-to-moderate AD, Week 48, 95% CI (−1.8, 1.8), P-Value 0.9809
  ADAS-Cog Total Score, Model Estimates, Difference LSMean (SE): 0.0 (0.93)
[4]; [8]
  CDR01-Sum of Boxes, Analysis Value, Mean (SD): 8.3 (3.24)
  CDR01-Sum of Boxes, Analysis Value, Median: 8.0
  CDR01-Sum of Boxes, Change from Baseline, Mean (SD): 1.9 (2.37)
  CDR01-Sum of Boxes, Change from Baseline, Median: 2.0
[4]; [9]
  ADAS-Cog Total Score, Analysis Value, Mean (SD): 31.5 (10.82)
  ADAS-Cog Total Score, Analysis Value, Median: 30.0
  ADAS-Cog Total Score, Charge from Baseline, Mean (SD): 0.8 (7.40)
  ADAS-Cog Total Score, Charge from Baseline, Median: 0.0
[4]; mild-to-moderate AD, after 48 weeks, 95% CI −4.08, 1.10, p-value=0.258
  NPI score, difference troriluzole vs placebo: −1.5
[4]; mild-to-moderate AD, after 48 weeks, n=120, placebo 3.8 points
  LS mean change from baseline on the NPI score: 2.3 points
[4]; Mild AD Patients Only, Week 48, 95% CI (−1.6, −0.6)
  Hippocampal Volume Change, Model Estimates, LSMean (SE): −1.1 (0.27)
[4]; Mild AD Patients Only, Week 48, 95% CI (−1.2, 0.3), P-Value 0.2240
  Hippocampal Volume Change, Model Estimates, Difference LSMean (SE): −0.5 (0.38)
[4]; [10]
  Hippocampal Volume Change, Analysis Value, Mean (SD): −1.1 (1.61)
  Hippocampal Volume Change, Analysis Value, Median: −0.9
[4]; mild-to-moderate AD, Week 48, 95% CI (−1.4, −0.7)
  Hippocampal Volume Change, Model Estimates, LSMean (SE): −1.1 (0.18)
[4]; mild-to-moderate AD, Week 48, 95% CI (−0.6, 0.5), P-Value 0.8670
  Hippocampal Volume Change, Model Estimates, Difference LSMean (SE): 0.0 (0.26)
[4]; [11]
  Hippocampal Volume Change, Analysis Value, Mean (SD): −1.1 (1.50)
  Hippocampal Volume Change, Analysis Value, Median: −0.9
